Results from paper PMC8982324 (Journal of Extracellular Vesicles, 2022).
No end group written: not given here.

Assays:
HEK293T‐eGFP cells = format: cell-based
full length NMT1 enzyme = molecular target: T1, full length NMT1 enzyme (Homo sapiens, UniProt P30419); experiment: NMT1 activity assay; settings: synthesized octapeptide; average of three experiments
T1 sequence (P30419 1-496): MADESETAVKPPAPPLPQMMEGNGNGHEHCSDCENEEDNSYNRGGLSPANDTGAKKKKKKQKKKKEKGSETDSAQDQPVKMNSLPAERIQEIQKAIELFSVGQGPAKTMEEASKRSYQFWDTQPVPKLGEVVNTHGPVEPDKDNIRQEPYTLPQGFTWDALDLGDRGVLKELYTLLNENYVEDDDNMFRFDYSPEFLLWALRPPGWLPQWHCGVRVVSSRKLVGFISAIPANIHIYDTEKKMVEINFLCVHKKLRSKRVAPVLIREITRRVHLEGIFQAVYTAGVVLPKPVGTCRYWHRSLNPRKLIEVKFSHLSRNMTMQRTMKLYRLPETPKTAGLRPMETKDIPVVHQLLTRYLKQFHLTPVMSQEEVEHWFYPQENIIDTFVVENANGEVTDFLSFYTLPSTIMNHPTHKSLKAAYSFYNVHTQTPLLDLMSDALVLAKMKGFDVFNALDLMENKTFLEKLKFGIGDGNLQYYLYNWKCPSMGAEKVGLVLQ

Compound | effect on Cas9 and VSV‐G protein levels in recipient cells (HEK293T‐eGFP cells) | substrate of NMT1 enzyme (full length NMT1 enzyme)
CCN(CC)CCCC(C)Nc1ccnc2cc(Cl)ccc12 (centres unmarked) [chloroquine] | greatly increased | 
ASNKSKPK [SRC(G2A)] |  | not a substrate of NMT1
